Source: ChEMBL document CHEMBL4715789, “Identification of a Potential Antimalarial Drug Candidate from a Series of 2-Aminopyrazines by Optimization of Aqueous Solubility and Potency across the Parasite Life Cycle” (J Med Chem, 2016)
Converted amounts (≈) assume the structure as drawn.

Assays:
[1] = Aqueous solubility of compound in pH 6.5 PBS incubated for 2 hrs under shaking condition by shake-flask method based HPLC-DAD analysis; assay type: physicochemical
Plasmodium falciparum [2] = experiment: microbe, parasite or virus in culture; details: NF54, Erythrocyte
Description: Antiplasmodial activity against multidrug-sensitive Plasmodium falciparum NF54 infected in human erythrocytes assessed as reduction in [3H]hypoxanthine incorporation preincubated for 48 hrs followed by [3H]hypoxanthine addition and measured after 24 hrs by liquid scintillation counting method

[3] = Aqueous solubility of compound in pH 2 0.01M HCl incubated for 2 hrs under shaking condition by shake-flask method based HPLC-DAD analysis; assay type: physicochemical
Plasmodium falciparum [4] = experiment: microbe, parasite or virus in culture; details: K1, Erythrocyte
Description: Antiplasmodial activity against multidrug-resistant Plasmodium falciparum K1 infected in erythrocytes assessed as reduction in [3H]hypoxanthine incorporation preincubated for 48 hrs followed by [3H]hypoxanthine addition and measured after 24 hrs by liquid scintillation counting method

[5] = Metabolic stability in human liver microsomes assessed as compound remaining at 0.1 uM measured after 30 mins in presence of cofactor NADPH by LC-MS/MS analysis; assay type: ADME, Microsome; details: read-out: Stabilty
[6] = Metabolic stability in rat liver microsomes assessed as compound remaining at 0.1 uM measured after 30 mins in presence of cofactor NADPH by LC-MS/MS analysis; assay type: ADME, Microsome; details: read-out: Stabilty
[7] = Metabolic stability in mouse liver microsomes assessed as compound remaining at 0.1 uM measured after 30 mins in presence of cofactor NADPH by LC-MS/MS analysis; assay type: ADME, Microsome; details: read-out: Stabilty
[8] = target: Voltage-gated inwardly rectifying potassium channel KCNH2 (Homo sapiens, UniProt Q12809); experiment: Inhibition of human ERG by IonWorks patch clamp electrophysiology method
Sequence of Voltage-gated inwardly rectifying potassium channel KCNH2 (Q12809 whole entry): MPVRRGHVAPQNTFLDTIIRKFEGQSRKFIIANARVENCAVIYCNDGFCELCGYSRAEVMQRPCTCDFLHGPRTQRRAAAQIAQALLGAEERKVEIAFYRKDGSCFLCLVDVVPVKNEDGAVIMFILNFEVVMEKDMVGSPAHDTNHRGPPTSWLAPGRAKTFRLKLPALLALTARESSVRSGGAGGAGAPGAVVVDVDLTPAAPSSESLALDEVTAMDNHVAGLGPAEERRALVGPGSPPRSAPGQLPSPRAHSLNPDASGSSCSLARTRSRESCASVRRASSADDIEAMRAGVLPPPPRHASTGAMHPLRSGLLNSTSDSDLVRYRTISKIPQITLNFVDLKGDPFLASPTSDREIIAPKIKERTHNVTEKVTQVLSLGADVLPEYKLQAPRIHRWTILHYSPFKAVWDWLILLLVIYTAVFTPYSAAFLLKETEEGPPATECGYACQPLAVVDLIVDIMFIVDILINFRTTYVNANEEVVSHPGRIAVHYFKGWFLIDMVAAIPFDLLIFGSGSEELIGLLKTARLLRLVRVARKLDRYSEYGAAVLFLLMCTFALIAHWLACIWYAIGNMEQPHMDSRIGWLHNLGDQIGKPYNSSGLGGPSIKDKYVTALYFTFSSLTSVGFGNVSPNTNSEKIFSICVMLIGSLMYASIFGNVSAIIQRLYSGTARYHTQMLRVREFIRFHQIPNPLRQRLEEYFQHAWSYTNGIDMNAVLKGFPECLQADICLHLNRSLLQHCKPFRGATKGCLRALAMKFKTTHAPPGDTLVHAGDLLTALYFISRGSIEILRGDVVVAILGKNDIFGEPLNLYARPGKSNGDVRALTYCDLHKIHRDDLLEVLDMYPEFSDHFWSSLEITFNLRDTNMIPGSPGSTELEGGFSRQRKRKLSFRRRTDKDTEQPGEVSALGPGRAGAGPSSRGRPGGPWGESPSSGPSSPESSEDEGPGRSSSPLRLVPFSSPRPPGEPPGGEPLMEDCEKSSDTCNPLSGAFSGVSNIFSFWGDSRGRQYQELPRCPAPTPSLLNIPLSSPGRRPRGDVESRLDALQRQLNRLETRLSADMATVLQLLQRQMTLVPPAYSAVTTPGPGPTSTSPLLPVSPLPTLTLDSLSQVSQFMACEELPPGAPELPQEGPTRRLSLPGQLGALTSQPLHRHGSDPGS

Plasmodium berghei [9] = experiment: Antiplasmodial activity against Plasmodium berghei ANKA infected in NMRI mouse assessed as reduction in parasitemia at 3 mg/kg, po qd for 4 consecutive days measured at day 7 post infection by flow cytometry analysis; assay type: functional; design: scale not given: the % may be the effect or the level left; details: time 4 day
Plasmodium berghei [10] = experiment: Antiplasmodial activity against Plasmodium berghei ANKA infected in NMRI mouse model assessed as mean survival days at 3 mg/kg, po qd for 4 consecutive day; assay type: functional; details: time 4 day
hERG (KCNH2) = experiment: Selectivity ratio of IC50 for inhibition of human ERG by IonWorks patch clamp electrophysiology method to IC50 for antiplasmodial activity against multidrug-sensitive Plasmodium falciparum NF54 infected in human erythrocytes; assay type: toxicity, cell-based; details: read-out: Ratio IC50
[11] = Cmax(app) in NMRI mouse plasma infected with Plasmodium berghei ANKA at 3 mg/kg, po qd for 4 consecutive days and measured post last dose; assay type: ADME, organism-based; details: time 4 day
Plasmodium berghei [12] = experiment: Antiplasmodial activity against Plasmodium berghei ANKA infected in NMRI mouse model assessed as mean survival days at 10 mg/kg, po qd for 4 consecutive day; assay type: functional; details: time 4 day
Plasmodium berghei [13] = experiment: Antiplasmodial activity against Plasmodium berghei ANKA infected in NMRI mouse assessed as reduction in parasitemia at 10 mg/kg, po qd for 4 consecutive days measured at day 7 post infection by flow cytometry analysis; assay type: functional; design: scale not given: the % may be the effect or the level left; details: time 4 day
[14] = Apparent average plasma concentration in NMRI mouse plasma infected with Plasmodium berghei ANKA at 3 mg/kg, po qd for 4 consecutive days and measured post last dose; assay type: ADME, organism-based; details: in vivo, 96 h, time 4 day
[15] = AUC(app) in NMRI mouse plasma infected with Plasmodium berghei ANKA at 3 mg/kg, po qd for 4 consecutive days and measured post last dose; assay type: ADME, organism-based; details: time 4 day

Row | Compound | solubility thermodynamic at 2 h [1] [µM] | IC50 (Plasmodium falciparum [2]) [nM] | solubility thermodynamic at 2 h [3] [µM] | IC50 (Plasmodium falciparum [4]) [nM] | remaining at 0.5 h, 0.1 µM [5] [%] | remaining at 0.5 h, 0.1 µM [6] [%] | remaining at 0.5 h, 0.1 µM [7] [%] | IC50 [8] [nM] | Activity (Plasmodium berghei [9]) [%] | MSD (Plasmodium berghei [10]) [days] | selectivity ratio (hERG (KCNH2)) | Cmax [11] [nM] | MSD (Plasmodium berghei [12]) [days] | Activity (Plasmodium berghei [13]) [%] | Cave [14] [nM] | AUC at 96 h [15] [µM·h]
1 | Nc1ccc(-c2nc(-c3ccc(C(=O)N4CCNCC4)cc3)cnc2N)cn1 | 186 (≈ 69.8 µg/mL) | 51 | 189 (≈ 71 µg/mL) | 37 | – | – | – | – | – | – | – | – | – | – | – | –
2 | CNC(=O)c1ccc(-c2nc(-c3ccc(C(N)=O)cc3)cnc2N)cc1 | 178 (≈ 61.8 µg/mL) | 52 | 186 (≈ 64.6 µg/mL) | 52 | – | – | – | – | – | – | – | – | – | – | – | –
3 | Nc1ccc(-c2cnc(N)c(-c3ccc(N)nc3)n2)cn1 | – | 203 | – | 143 | > 90 | > 90 | > 90 | – | – | – | – | – | – | – | – | –
4 | CC(C)(C)N1CCN(C(=O)c2ccc(-c3cnc(N)c(-c4ccc(C(F)(F)F)cc4)n3)cc2)CC1 | 95 (≈ 45.9 µg/mL) | 17 | 200 (≈ 96.7 µg/mL) | 11 | – | – | – | 2000 | – | – | – | – | – | – | – | –
5 | Nc1ncc(-c2ccc(C(=O)N3CCC(N)CC3)cc2)nc1-c1ccc(C(F)(F)F)nc1 | 163 (≈ 72.1 µg/mL) | 20 | 200 (≈ 88.5 µg/mL) | 18 | – | – | – | – | 41 | 6 | – | – | – | – | – | –
6 | Nc1ncc(-c2ccc(C(=O)N3CCC(N)C3)cc2)nc1-c1ccc(C(F)(F)F)cc1 (configuration not stated) | 102 (≈ 43.6 µg/mL) | 19 | 165 (≈ 70.5 µg/mL) | 12 | – | – | – | 10000 | 71 | 7 | 526 | – | – | – | – | –
7 | CN1CCN(C(=O)c2ccc(-c3cnc(N)c(-c4ccc(C(F)(F)F)cc4)n3)cc2)CC1 | – | 7.9 | – | 6.8 | > 90 | > 90 | > 90 | – | – | 12 | – | 1600 | 26 | – | – | –
8 | Nc1ncc(-c2ccc(C(=O)N3CC[C@H](O)C3)cc2)nc1-c1ccc(C(F)(F)F)cc1 | 68 (≈ 29.1 µg/mL) | 6 | 93 (≈ 39.8 µg/mL) | – | > 90 | > 90 | > 90 | – | – | 8 | – | – | 16 | 100 | – | –
9 | Nc1ccc(-c2cnc(N)c(-c3ccc(C(F)(F)F)nc3)n2)cn1 | 34 (≈ 11.3 µg/mL) | – | 199 (≈ 66.1 µg/mL) | – | > 90 | > 90 | > 90 | – | – | – | – | – | – | – | – | –
10 | NC(=O)c1ccc(-c2cnc(N)c(-c3ccc(C(F)(F)F)nc3)n2)nc1 | < 5 | 1580 | 123 (≈ 44.3 µg/mL) | – | – | – | – | – | – | – | – | – | – | – | – | –
11 | CN1CCCN(C(=O)c2ccc(-c3cnc(N)c(-c4ccc(C(F)(F)F)cc4)n3)cc2)CC1 | 152 (≈ 69.2 µg/mL) | 6.8 | 200 (≈ 91.1 µg/mL) | 5.7 | – | – | – | 5000 | 90 | 7 | – | – | – | – | – | –
12 | Nc1ncc(-c2ccc(C(=O)N3CCCNCC3)cc2)nc1-c1ccc(C(F)(F)F)nc1 | 146 (≈ 64.6 µg/mL) | 12.7 | 200 (≈ 88.5 µg/mL) | 10.2 | – | – | – | – | 55 | 7 | – | – | – | – | – | –
13 | CS(=O)(=O)c1ccc(-c2cnc(N)c(-c3ccc(N)nc3)n2)cc1 | 149 (≈ 50.9 µg/mL) | 38 | 206 (≈ 70.3 µg/mL) | 27 | > 90 | > 90 | > 90 | – | – | – | – | – | – | – | – | –
14 | Nc1ncc(-c2ccc(C(=O)N3CCC(O)C3)cc2)nc1-c1ccc(C(F)(F)F)cc1 (configuration not stated) | 77 (≈ 33 µg/mL) | 9.6 | 129 (≈ 55.3 µg/mL) | 6.8 | > 90 | > 90 | > 90 | – | 99.6 | 8 | – | 3610 | – | – | 2060 | 34.7
15 | CN1CCN(C(=O)c2ccc(-c3cnc(N)c(-c4ccc(C(F)(F)F)nc4)n3)cc2)CC1 | 182 (≈ 80.5 µg/mL) | 9.9 | 200 (≈ 88.5 µg/mL) | 9.9 | > 90 | > 90 | > 90 | – | 81 | 7 | – | – | 8 | – | – | –
16 | COC(=O)c1ccc(-c2cnc(N)c(-c3ccc(C(F)(F)F)cc3)n2)cc1 | < 5 | 2630 | < 5 | – | – | – | – | – | – | – | – | – | – | – | – | –
